Source: the supplement of paper PMC10307832

Legend:
Assay in all cases: relative viability (nuclei count vs DMSO), 5 days (fraction); higher = more cells survive
[1] = compound: CCn1c(-c2nonc2N)nc2cnc(Oc3cccc(NC(=O)c4ccc(OCCN5CCOCC5)cc4)c3)cc21 + Cc1cc(Nc2cc(N3CCN(C)CC3)nc(Sc3ccc(NC(=O)C4CC4)cc3)n2)n[nH]1 [Tozasertib] (partner 0.1 µM)
In short: (§1)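 Values are medians from duplicate plates. Each reflects relative viability, defined as the nuclei count of treated wells over that of vehicle wells. Lung cancer cell lines in 1536-well plates were pin-tool dosed one day after seeding with one drug alone or with a fixed anchor-drug dose plus five library-drug doses (not always all listed) in √10 steps, then fixed, stained and imaged at 4× after 5 days.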

Mirin + Navitoclax = compound: N=C1NC(=O)/C(=C/c2ccc(O)cc2)S1 [Mirin] + CC1(C)CCC(c2ccc(Cl)cc2)=C(CN2CCN(c3ccc(C(=O)NS(=O)(=O)c4ccc(N[C@H](CCN5CCOCC5)CSc5ccccc5)c(S(=O)(=O)C(F)(F)F)c4)cc3)CC2)C1 [Navitoclax] (partner 0.5 µM)
In short: as §1

Mirin + Pemetrexed = compound: N=C1NC(=O)/C(=C/c2ccc(O)cc2)S1 [Mirin] + Nc1nc2[nH]cc(CCc3ccc(C(=O)N[C@@H](CCC(=O)O)C(=O)O)cc3)c2c(=O)[nH]1 [Pemetrexed] (partner 0.2 µM)
In short: as §1

[2] = compound: CCn1c(-c2nonc2N)nc2cnc(Oc3cccc(NC(=O)c4ccc(OCCN5CCOCC5)cc4)c3)cc21 + CC(C)C[C@H](NC(=O)[C@H](Cc1ccccc1)NC(=O)c1cnccn1)B(O)O [Bortezomib] (partner 0.002 µM)
In short: as §1

Cell Line | relative viability ([1]; first compound 0.04 µM) | relative viability ([1]; first compound 0.1265 µM) | relative viability ([1]; first compound 0.4 µM) | relative viability ([1]; first compound 1.265 µM) | relative viability ([1]; first compound 4 µM) | relative viability (Mirin + Navitoclax; first compound 0.25 µM) | relative viability (Mirin + Navitoclax; first compound 0.7906 µM) | relative viability (Mirin + Navitoclax; first compound 2.5 µM) | relative viability (Mirin + Navitoclax; first compound 7.906 µM) | relative viability (Mirin + Navitoclax; first compound 25 µM) | relative viability (Mirin + Pemetrexed; first compound 0.25 µM) | relative viability (Mirin + Pemetrexed; first compound 0.7906 µM) | relative viability (Mirin + Pemetrexed; first compound 2.5 µM) | relative viability (Mirin + Pemetrexed; first compound 7.906 µM) | relative viability (Mirin + Pemetrexed; first compound 25 µM) | relative viability ([2]; first compound 0.04 µM) | relative viability ([2]; first compound 0.1265 µM) | relative viability ([2]; first compound 0.4 µM) | relative viability ([2]; first compound 1.265 µM) | relative viability ([2]; first compound 4 µM)
SW 1573 | 0.255 | 0.149 | 0.12 | 0.145 | 0.0839 | 0.989 | 0.98 | 0.825 | 0.88 | 0.608 | 0.742 | 0.84 | 0.818 | 0.715 | 0.642 | 0.984 | 1.04 | 0.871 | 0.575 | 0.41
NCI-H1975 | 0.661 | 0.549 | 0.491 | 0.121 | 0.0969 | 1.05 | 1.07 | 1.11 | 1.14 | 0.994 | 0.324 | 0.256 | 0.272 | 0.274 | 0.252 | 0.244 | 0.263 | 0.227 | 0.177 | 0.165
SK-LU-1 | 0.402 | 0.371 | 0.29 | 0.238 | 0.218 | 1.05 | 0.909 | 0.793 | 0.772 | 0.498 | 0.983 | 0.992 | 0.931 | 0.855 | 0.823 | 1.5 | 0.921 | 0.608 | – | 0.504
NCI-H460 | 0.563 | 0.601 | 0.311 | 0.036 | 0.0635 | 1.18 | 1.27 | 1.19 | 1.06 | 0.913 | 0.0601 | 0.0695 | 0.0719 | 0.0635 | 0.0557 | 1.09 | 1.03 | 0.716 | 0.5 | 0.26
HCC-78 | 0.589 | – | – | 0.532 | 0.519 | 0.758 | 0.712 | 0.866 | 0.847 | 0.674 | 0.952 | 0.882 | 0.882 | 0.903 | 0.871 | 0.465 | 0.53 | 0.494 | 0.605 | 0.705
NCI-H1915 | 0.499 | 0.457 | 0.417 | 0.396 | 0.406 | 0.775 | – | 0.76 | 0.743 | 0.866 | 0.469 | 0.484 | 0.504 | 0.434 | 0.433 | 1.16 | 0.94 | 0.958 | 0.653 | 0.314
